Consider 2 compounds from patent publication US20080146633A1, “COMPOSITIONS FOR SKIN LIGHTENING AND TONING DOWN PIGMENT DISORDERS, COMPRISING CREATININE AND/OR CREATININE DERIVATIVES AS ACTIVE SUBSTANCES” (GOLDSCHMIDT GMBH, priority 2002, published 2008).

The test system of assay [1] is MelanoDerm in vitro skin model (melanocytes). Briefly: In vitro skin model test (MelanoDerm), melanin determined quantitatively. The conditions noted are these: for Melanin: applied every 48 hours. Format: cell-based. From the text: The skin-lightening effect was validated on an in vitro skin model, the MelanoDerm™ from MatTek. This model is very similar in structure and function to the natural skin and has the cell types relevant in the epidermis including the melanocytes, which are responsible for the synthesis of the main pigment melanin. Further information can be found, for example, in M. K. King et al. in Proceedings of Society of Cosmetic Chemists Annual Scientific Meeting and Technology Showcase 1998, 35-36. Creatinine, kojic acid dipalmitate as positive standard and water as negative control were applied every 48 hours over a period of 21 days to the in vitro skin model.
The melanin produced by the melanocytes was determined quantitatively on the 17th and 21st day.

The subject of a further assay is fungi tyrosinase. Briefly: Tyrosinase inhibition (L-Dopa to dopachrome, absorption at 475 nm). The class given is biochemical. The following applies: 15 min at room temperature. As for the experimental part: The inhibition of fungi tyrosinase was determined as a function of different concentrations of creatinine (0.05 to 1.7% by volume) by reference to the enzymatic reaction of L-Dopa to dopachrome. The absorption maximum of the dopachrome is at a wavelength of 475 nm. The tyrosinase inhibition is calculated in accordance with the following equation:
Inhibition [%]={100−[(Esample*100)/Ereference]} (1)
each measurement was carried out in duplicate, with parallel mixtures. The variation of the method is ±10%,
25 mM acetate buffer (pH 4.9): dilute from 0.2 M acetate buffer (pH 4.9) (Sigma) Phosphate buffer (pH 7): Titrosol (Merck) 20 mM L-DOPA (in acetate buffer) Tyrosinase stock solution: 40 U/ml of phosphate buffer Stock solution of creatinine: 0.45 M in phosphate buffer
The DOPA solution and the tyrosinase stock solution were prepared only prior to the start of the experiment. The L-DOPA solutions should be stored in a dark place and in vessels which can be sealed tightly.
500 μL of DOPA stock solution 400 μL of creatinine solution or phosphate buffer (reference) 100 μL of tyrosinase stock solution Following the addition of the enzyme, the samples were thoroughly mixed using a “Reax Top” (Heidolph). Following an incubation period of 15 min at room temperature, the absorption at 475 nm was determined. The measurement was carried out using a “Helios Beta” spectrophotometer from Unicam.

With `CCCCCCCCCCCCCCCC(=O)OCc1cc(=O)c(OC(=O)CCCCCCCCCCCCCCC)co1` [Kojic dipalmitate, kojic acid dipalmitate, reference compound], the entries for the “Melanin” value in assay [1] (Day 17) and in assay [1] (Day 21) were 102.5 µg and 82.67 µg, respectively.

In the case of `CN1CC(=O)NC1=N` [Creatinine, 2-imino-N-methylhydantoin], the figures for the “Melanin” value in assay [1] (Day 17) and in assay [1] (Day 21) were 94.5 µg and 12.67 µg, respectively. Besides, the “Effectiveness compared with kojic acid dipalmitate (positive standard)” value in assay [1] (upon prolonged application) is reported as “twice as effective”. In addition, the “Tyrosinase inhibition (%)” value in the assay with fungi tyrosinase (creatinine 0.05 % by volume) turned out to be 1.77%; in the assay on fungi tyrosinase (creatinine 0.30 % by volume) it was 9.97%; in the assay with fungi tyrosinase (creatinine 0.60 % by volume), 14.21%; with fungi tyrosinase (creatinine 0.90 % by volume) it was 20.75%; with fungi tyrosinase (creatinine 1.10 % by volume), 24.81%; with fungi tyrosinase (creatinine 1.40 % by volume) it was 28.15%. Also, in the assay on fungi tyrosinase (creatinine 1.70 % by volume), the “Tyrosinase inhibition (%)” value turned out to be 32.18%.
